US5721356A, “Orally active adenosine kinase inhibitors” (Gensia, Inc., priority 1995, dated 1998)
Counter-ions that a name gives are not always drawn. Like-named read-outs stand apart in the source and are kept apart here.

Columns and labels:
[1] = Oral bioavailability in dogs (oral vs intravenous AUC); type: in vivo, dog (female beagles); details: dog, plasma, 10 mg/kg, read-out: % Oral Availability
Method: Oral bioavailability was determined by comparing the dose corrected areas under the plasma-concentration time curve (AUC) to infinity for the each tested compound, given orally and intravenously in dogs. […] One dog received this solution at an infusion rate of 0.1 mL/min for 20 minutes. The other dog received a 0.2 mL/in infusion for 10 minutes. […] The plasma was separated within 10 minutes of blood collection and was stored frozen. The plasma concentration of compound was then determined for these IV infusions. […] The plasma concentration of compound was determined for this oral administration. The samples were assayed for intact adenosine kinase inhibitor by high performance liquid chromatography (HPLC). An internal standard was added to each test sample and standard sample. Each was then extracted with 10 volumes of 1% v/v dimethylsulfoxide in acetonitrile. […] The dried residue was reconstituted in mobile phase and the contents were analyzed for the adenosine kinase inhibitor (AKI) on HPLC. […] Pharmacokinetic parameters were calculated from the plasma concentration vs. time data, using standard non-compartmental methods. […] et al., Pharmacokinetics., 2[…]. (1983).

female SA rats = assay: Liver toxicity (serum liver enzymes and total bilirubin); type: in vivo, rat; details: iv infusion 2 x 37.5 μmole/kg, 12 hours after second dose
Method: Female SA rats (150-200 g) were anesthetized with halothane and cannulated via the internal jugular vein. The animals wee allowed to recover for 3 days. […] Twelve hours later, an additional 37.5 μmole/kg was infused over 20 minutes (total dose=75 μmole/kg). […] Liver enzymes (serum glutamic-oxaloacetic transaminase (SGOT), serum glutamic-pyruvic transaminase (SGPT), alkaline phosphatase) and total bilirubin in the serum samples were dermined by a commercial laboratory.

[2] = target: T1, partially purified pig heart adenosine kinase (Sus scrofa, UniProt A0A5G2R0F5); assay: Adenosine kinase (AK) inhibition; type: biochemical
T1 construct: partially purified pig heart adenosine kinase; from tissue; host or cells: pig heart
T1 sequence (A0A5G2R0F5 1-362): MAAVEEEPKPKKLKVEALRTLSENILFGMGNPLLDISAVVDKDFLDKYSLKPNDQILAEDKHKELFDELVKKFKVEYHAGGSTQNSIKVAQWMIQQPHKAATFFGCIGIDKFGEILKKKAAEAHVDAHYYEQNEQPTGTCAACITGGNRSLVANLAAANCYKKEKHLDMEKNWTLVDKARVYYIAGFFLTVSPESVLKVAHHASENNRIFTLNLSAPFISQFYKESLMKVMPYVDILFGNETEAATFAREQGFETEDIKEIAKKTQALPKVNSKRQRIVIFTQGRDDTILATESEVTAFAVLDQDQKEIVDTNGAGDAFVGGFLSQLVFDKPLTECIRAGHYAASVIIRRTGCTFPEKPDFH
Method: Adenosine kinase activity was measured essentially as described by Yamada et al. Biochim. Biophys. Acta 660, 36-43 […] with a few minor modifications. Assay mixtures contained 50 mM TRIS-maleate buffer, pH 7.0, 0.1% BSA, 1 mM ATP 1 mM MgCl2, 0.5 μM [U-^14 C]adenosine (400-600 mCi/mmol) and varying duplicate concentrations of inhibitor. The reactions were initiated by addition of approximately 0.1 μU partially purified pig heart adenosine kinase, where one unit is defined as that amount of enzyme required to phosphorylate 1 μmol adenosine per minute. The reactions were incubated for 20 minutes at 37° C. The assay was quenched upon spotting 30 μL aliquots onto 2 cm^2 pieces of Whatman DE81 anion exchange paper. The paper squares were washed for 3 minutes in 6 L distilled/deionized water to remove the unreacted adenosine. […] The amount of ^14 C-AMP was quantified by scintillation counting.

male SA rats = assay: Anticonvulsant activity, maximal electroshock (MES) model, suppression of hind limb tonic extension; type: in vivo; details: Rattus norvegicus, 1 h
[3] = system: carrageenan-induced paw swelling in rats; assay: Anti-inflammatory activity, carrageenan paw swelling; type: in vivo, rat; details: po, 10 mg/kg, paw swelling 3 hours after carrageenan, vs vehicle
Method: Carrageenan (Type λ) was suspended in sterile PBS at 1% (w/v), autoclaved for 30 minutes, and stored at room temperature. Rats were pretreated with vehicle or AK inhibitor (10 mg/kg) by oral gavage or i.p. administration and the volume of the left hind paw was measured using a water displacement plethysmometer (Stoelting Co., Wood Dale, Ill.). One hour after oral treatment or 30 minutes after i.p. treatment, the rats were briefly anesthetized, and 0.1 ml of the carrageenan solution was injected subcutaneously into the planar surface of the left hind paw. The ensuing paw swelling was measured by plethysmometry after 3 hours. The paw volume in millileters was subtracted from the pre-injection paw volume. Data are presented as the percent inhibition of paw swelling in AK inhibitor treated animals, compared to vehicle treated control animals.

[4] = ip, one hour before seizure testing, >5 or <5 = fewer or more than 50% inhibited in initial screen at 5 mg/kg ip, read-out: Anticonvulsant ED50 (MES), ip
[5] = ip, one hour before seizure testing, >5 or <5 = fewer or more than 50% inhibited in initial screen at 5 mg/kg ip
[6] = po, fasted, one hour before seizure testing, read-out: Anticonvulsant ED50 (MES), po

SMILES	IC50 [2]	ED50 at 5 mg/kg (male SA rats; [5])	ED50 (male SA rats; [6])	other results
COc1ccc(-c2cn([C@@H]3O[C@H](C)[C@@H](O)[C@H]3O)c3ncnc(Nc4ccc(C#N)cc4)c23)cc1 [#27, 4-N-(4-cyanophenyl)amino-5-(4-methoxyphenyl)-7-(5-deoxy-1-β-D-ribofuranosyl)pyrrolo[2,3-d]pyrimidine]				bioavailability [1]: 100%
C[C@H]1O[C@@H](n2cc(I)c3c(N)ncnc32)[C@H](O)[C@@H]1O [REF. A]				SGPT (female SA rats): 76 IU/L; Total Bilirubin (female SA rats): 0.76 mg/dL
NC[C@H]1O[C@@H](n2nc(Br)c3c(N)ncnc32)[C@H](O)[C@@H]1O [REF. B, 4amino-1-(5-amino-5-deoxy-1-D-ribofuranosyl)-3-bromopyrazolo[3,4d]pyrimidne HCL]				SGOT (female SA rats): 100 IU/L; SGPT (female SA rats): 41 IU/L; Total Bilirubin (female SA rats): 0.30 mg/dL
C[C@H]1O[C@@H](n2cc(-c3ccccc3)c3c(Nc4cc(F)cc(F)c4)ncnc32)[C@H](O)[C@@H]1O [compound 10]	1 nM			ED50 (male SA rats; [4]): 5 mg/kg
C[C@H]1O[C@@H](n2cc(-c3ccccc3)c3c(Nc4ccc(F)c(F)c4)ncnc32)[C@H](O)[C@@H]1O [compound 11]	4 nM	5 mg/kg		
COc1ccc(Nc2ncnc3c2c(-c2ccccc2)cn3[C@@H]2O[C@H](C)[C@@H](O)[C@H]2O)cc1 [compound 13]	6 nM		> 10 mg/kg	ED50 (male SA rats; [4]): 2 mg/kg
C[C@H]1O[C@@H](n2cc(-c3cccc(Cl)c3)c3c(Nc4ccccc4)ncnc32)[C@H](O)[C@@H]1O [compound 15]	16 nM	2.5 mg/kg		ED50 (male SA rats; po, read-out: Anticonvulsant ED50 (MES), po): > 20 mg/kg
Cc1ccc(-c2cn([C@@H]3O[C@H](C)[C@@H](O)[C@H]3O)c3ncnc(Nc4ccccc4)c23)cc1 [compound 16]	9 nM	2.3 mg/kg	8.7 mg/kg	
C[C@H]1O[C@@H](n2cc(-c3ccccc3)c3c(Nc4cccc(Cl)c4)ncnc32)[C@H](O)[C@@H]1O [compound 17]	17 nM			
Cc1cccc(Nc2ncnc3c2c(-c2ccccc2)cn3[C@@H]2O[C@H](C)[C@@H](O)[C@H]2O)c1 [compound 18]	4 nM	3.8 mg/kg	> 40 mg/kg	
C[C@H]1O[C@@H](n2cc(-c3ccccc3)c3c(Nc4cccc(F)c4)ncnc32)[C@H](O)[C@@H]1O [compound 19]	2 nM	0.4 mg/kg	> 30 mg/kg	
C[C@H]1O[C@@H](n2cc(-c3ccccc3)c3c(Nc4ccc(O)cc4)ncnc32)[C@H](O)[C@@H]1O [compound 20]	32 nM		40 mg/kg	ED50 (male SA rats; [4]): 5.5 mg/kg
C[C@H]1O[C@@H](n2cc(-c3ccc(F)cc3)c3c(Nc4ccccc4)ncnc32)[C@H](O)[C@@H]1O [compound 24]		2.5 mg/kg	10 mg/kg	
COc1ccc(-c2cn([C@@H]3O[C@H](C)[C@@H](O)[C@H]3O)c3ncnc(Nc4ccc(F)cc4)c23)cc1 [compound 25]	10 nM	3.1 mg/kg		
CCOc1ccc(Nc2ncnc3c2c(-c2ccccc2)cn3[C@@H]2O[C@H](C)[C@@H](O)[C@H]2O)cc1 [compound 28]	4 nM	< 5 mg/kg		Carrageenan Paw (% inh) [3]: 31.0%
CCc1ccc(Nc2ncnc3c2c(-c2ccccc2)cn3[C@@H]2O[C@H](C)[C@@H](O)[C@H]2O)cc1 [compound 29]	20 nM	> 5 mg/kg		
C[C@H]1O[C@@H](n2cc(-c3cccc([N+](=O)[O-])c3)c3c(Nc4ccc(F)cc4)ncnc32)[C@H](O)[C@@H]1O [compound 30]	28 nM	> 5 mg/kg		
COc1ccc(-c2cn([C@@H]3O[C@H](C)[C@@H](O)[C@H]3O)c3ncnc(Nc4ccc(C(N)=O)cc4)c23)cc1 [compound 31]	2 nM	> 5 mg/kg		Carrageenan Paw (% inh) [3]: -5.8%
